Relative viability data for seven cell lines are collected here from the supplement of paper PMC10307832.

What all share (test): relative viability (nuclei count vs DMSO), 5 days (fraction); higher = more cells survive
Compound in assay [1]: CC(C)C[C@H](NC(=O)[C@H](Cc1ccccc1)NC(=O)c1cnccn1)B(O)O [Bortezomib] + NC(=O)Nc1cc(-c2cccc(F)c2)sc1C(=O)N[C@H]1CCCNC1 [AZD7762] (partner 0.2 µM)
Put shortly:
(§1)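 Lung cancer cell lines in 1536-well plates were dosed by pin tool the day after seeding, either with one drug alone or with a fixed anchor-drug dose plus five library-drug doses (not always all listed) in √10 steps. After 5 days, cells were fixed and their nuclei stained in one step (final 0.05% Triton X-100, 1% formaldehyde, 1 ug/ml Hoechst), then counted on 4× images. Relative viability is the nuclei count in treated wells divided by that in vehicle wells. Values are medians of duplicate plates.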

Compound in assay [2]: COC1=CC(c2cc3ccccc3[nH]2)=N/C1=C\c1[nH]c(C)cc1C [Obatoclax] + C[C@]1(O)C[C@@H](c2nc(-c3ccc4ccc(-c5ccccc5)nc4c3)c3c(N)nccn32)C1 [Linsitinib] (partner 1 µM)
Put shortly:
as §1

Compound in assay [3]: CC1=CC(=NN1)NC2=CC(=NC(=N2)/C=C/C3=CC=CC=C3)N4CCN(CC4)C + CS(=O)(=O)N1CCN(Cc2cc3nc(-c4cccc5[nH]ncc45)nc(N4CCOCC4)c3s2)CC1 [Pictilisib] (partner 1 µM)
Put shortly:
as §1

Compound in assay [4]: CC(C)C[C@H](NC(=O)[C@H](Cc1ccccc1)NC(=O)c1cnccn1)B(O)O [Bortezomib] + Cc1nc(Nc2ncc(C(=O)Nc3c(C)cccc3Cl)s2)cc(N2CCN(CCO)CC2)n1 [Dasatinib] (partner 0.075 µM)
Put shortly: as §1

Take BEN: the relative viability was 0.667 in assay [1] (first compound 0.0002 µM); 0.788 in assay [1] (first compound 0.000632 µM); 0.73 in assay [1] (first compound 0.002 µM); 0.578 in assay [1] (first compound 0.006325 µM); 0.389 in assay [1] (first compound 0.02 µM); 0.948 in assay [2] (first compound 0.01 µM). Moreover, the relative viability turned out to be 0.828 in assay [2] (first compound 0.03162 µM); 0.913 in assay [2] (first compound 0.1 µM); 0.948 in assay [2] (first compound 0.3162 µM); 0.796 in assay [2] (first compound 1 µM); 0.622 in assay [3] (first compound 0.08 µM); 0.578 in assay [3] (first compound 0.253 µM). Besides, the relative viability in assay [3] (first compound 0.8 µM) was 0.598; in assay [3] (first compound 2.53 µM), 0.411; in assay [3] (first compound 8 µM) it was 0.193; in assay [4] (first compound 0.0002 µM) it was 0.262; in assay [4] (first compound 0.000632 µM) it was 0.408; in assay [4] (first compound 0.002 µM), 0.343. Moreover, the relative viability is 0.246 in assay [4] (first compound 0.006325 µM) and 0.249 in assay [4] (first compound 0.02 µM).
As for NCI-H23, the relative viability was 0.17 in assay [1] (first compound 0.0002 µM); 0.308 in assay [1] (first compound 0.002 µM); 0.25 in assay [1] (first compound 0.006325 µM); 0.0879 in assay [1] (first compound 0.02 µM); 0.588 in assay [2] (first compound 0.01 µM); 0.598 in assay [2] (first compound 0.03162 µM). Also, the relative viability stood at 0.647 in assay [2] (first compound 0.1 µM); 0.606 in assay [2] (first compound 0.3162 µM); 0.598 in assay [2] (first compound 1 µM); 0.462 in assay [3] (first compound 0.08 µM); 0.48 in assay [3] (first compound 0.253 µM); 0.382 in assay [3] (first compound 0.8 µM). In addition, the relative viability in assay [3] (first compound 2.53 µM) came to 0.296; in assay [3] (first compound 8 µM), 0.134; in assay [4] (first compound 0.0002 µM) it was 0.913; in assay [4] (first compound 0.000632 µM), 0.976; in assay [4] (first compound 0.002 µM), 0.76; in assay [4] (first compound 0.006325 µM) it was 0.224. For the same cell line, in assay [4] (first compound 0.02 µM), the relative viability was 0.108.
With NCI-H1975, the relative viability in assay [1] (first compound 0.0002 µM) is 0.727; in assay [1] (first compound 0.000632 µM), 0.652; in assay [1] (first compound 0.002 µM), 0.319; in assay [1] (first compound 0.006325 µM) it was 0.172; in assay [1] (first compound 0.02 µM), 0.194; in assay [2] (first compound 0.01 µM), 0.988. Further, the relative viability in assay [2] (first compound 0.03162 µM) came out at 0.989; in assay [2] (first compound 0.1 µM), 0.99; in assay [2] (first compound 0.3162 µM), 0.939; in assay [2] (first compound 1 µM) it was 0.971; in assay [3] (first compound 0.08 µM) it was 0.284; in assay [3] (first compound 0.253 µM) it was 0.307. For the same cell line, the relative viability in assay [3] (first compound 0.8 µM) is 0.25; in assay [3] (first compound 2.53 µM) it was 0.128; in assay [3] (first compound 8 µM) it was 0.0893; in assay [4] (first compound 0.0002 µM), 0.385; in assay [4] (first compound 0.000632 µM) it was 0.266; in assay [4] (first compound 0.002 µM), 0.106. In addition, the relative viability in assay [4] (first compound 0.006325 µM) amounted to 0.0685; in assay [4] (first compound 0.02 µM), 0.084.
As to LK-2, the relative viability in assay [1] (first compound 0.0002 µM) was 0.335; in assay [1] (first compound 0.000632 µM) it was 0.387; in assay [1] (first compound 0.002 µM), 0.533; in assay [1] (first compound 0.006325 µM), 0.449; in assay [1] (first compound 0.02 µM), 0.0966; in assay [2] (first compound 0.01 µM), 0.524. Besides, the relative viability was 0.383 in assay [2] (first compound 0.03162 µM); 0.826 in assay [2] (first compound 0.1 µM); 0.521 in assay [2] (first compound 0.3162 µM); 0.662 in assay [2] (first compound 1 µM); 0.464 in assay [3] (first compound 0.08 µM); 0.694 in assay [3] (first compound 0.253 µM). Further, the relative viability came out at 0.54 in assay [3] (first compound 0.8 µM); 0.279 in assay [3] (first compound 2.53 µM); 0.186 in assay [3] (first compound 8 µM); 0.287 in assay [4] (first compound 0.0002 µM); 0.304 in assay [4] (first compound 0.000632 µM); 0.203 in assay [4] (first compound 0.002 µM). For the same cell line, the relative viability in assay [4] (first compound 0.006325 µM) was determined as 0.114; in assay [4] (first compound 0.02 µM) it was 0.138.
In the case of EKVX, the relative viability in assay [1] (first compound 0.0002 µM) amounted to 0.72; in assay [1] (first compound 0.000632 µM), 0.741; in assay [1] (first compound 0.002 µM), 0.845; in assay [1] (first compound 0.006325 µM), 0.286; in assay [1] (first compound 0.02 µM), 0.0785; in assay [2] (first compound 0.01 µM), 0.978. For the same cell line, the relative viability in assay [2] (first compound 0.03162 µM) was determined as 0.923; in assay [2] (first compound 0.1 µM), 1.07; in assay [2] (first compound 0.3162 µM), 0.907; in assay [2] (first compound 1 µM), 0.876; in assay [3] (first compound 0.08 µM) it was 0.438; in assay [3] (first compound 0.253 µM), 0.478. For the same cell line, the relative viability came to 0.488 in assay [3] (first compound 0.8 µM); 0.31 in assay [3] (first compound 2.53 µM); 0.115 in assay [3] (first compound 8 µM); 0.544 in assay [4] (first compound 0.0002 µM); 0.526 in assay [4] (first compound 0.000632 µM); 0.707 in assay [4] (first compound 0.002 µM). In addition, the relative viability came out at 0.397 in assay [4] (first compound 0.006325 µM) and 0.185 in assay [4] (first compound 0.02 µM).
For NCI-H838, the relative viability in assay [1] (first compound 0.0002 µM) came to 0.878; in assay [1] (first compound 0.000632 µM), 0.925; in assay [1] (first compound 0.002 µM), 0.9; in assay [1] (first compound 0.006325 µM) it was 0.682; in assay [1] (first compound 0.02 µM), 0.622; in assay [2] (first compound 0.01 µM) it was 0.984. For the same cell line, the relative viability in assay [2] (first compound 0.03162 µM) turned out to be 1.06; in assay [2] (first compound 0.1 µM), 0.862; in assay [2] (first compound 0.3162 µM), 0.717; in assay [2] (first compound 1 µM) it was 0.935; in assay [3] (first compound 0.08 µM) it was 0.463; in assay [3] (first compound 0.253 µM) it was 0.488. Further, the relative viability turned out to be 0.471 in assay [3] (first compound 0.8 µM); 0.193 in assay [3] (first compound 2.53 µM); 0.105 in assay [3] (first compound 8 µM); 0.271 in assay [4] (first compound 0.0002 µM); 0.261 in assay [4] (first compound 0.000632 µM); 0.32 in assay [4] (first compound 0.002 µM). Moreover, the figures for the relative viability in assay [4] (first compound 0.006325 µM) and in assay [4] (first compound 0.02 µM) were 0.209 and 0.16, respectively.
For the cell line NCI-H2085, the relative viability came to 1.04 in assay [1] (first compound 0.0002 µM); 0.907 in assay [1] (first compound 0.000632 µM); 1.07 in assay [1] (first compound 0.002 µM); 0.881 in assay [1] (first compound 0.006325 µM); 0.225 in assay [1] (first compound 0.02 µM); 0.969 in assay [2] (first compound 0.01 µM). Also, the relative viability came to 0.85 in assay [2] (first compound 0.03162 µM); 0.856 in assay [2] (first compound 0.1 µM); 0.602 in assay [2] (first compound 0.3162 µM); 0.523 in assay [2] (first compound 1 µM); 0.437 in assay [3] (first compound 0.08 µM); 0.39 in assay [3] (first compound 0.253 µM). Further, the relative viability in assay [3] (first compound 0.8 µM) was 0.431; in assay [3] (first compound 2.53 µM) it was 0.18; in assay [3] (first compound 8 µM), 0.236; in assay [4] (first compound 0.0002 µM) it was 0.31; in assay [4] (first compound 0.000632 µM), 0.253; in assay [4] (first compound 0.002 µM), 0.207. The values for the relative viability in assay [4] (first compound 0.006325 µM) and in assay [4] (first compound 0.02 µM) were 0.209 and 0.241, respectively.
